The source of these data is ChEMBL document CHEMBL1201862, “PubChem BioAssay data set” (2004).

Holding throughout (test): growth of human tumour cells (NCI), 48 h
Assay [1] deals with A549.
For assay [2], the system named is OVCAR-4.
Assay [3] has as its system T47D.
Assay [4] relates to DU-145.
The test system of assay [5] is HCT-15.
Assay [6] has as its system NCI-H226.
For assay [7], the system named is MCF7.
For assay [8], the system named is SF-268.
The test system of assay [9] is UACC-257.
Assay [10] has as its system CAKI-1.
In assay [11] the test system is K562.
In assay [12] the test system is MOLT-4.
In assay [13] the test system is SW-620.
In assay [14] the test system is SR.
The test system of assay [15] is MDA-MB-231.
Assay [16] relates to HT-29.
Assay [17] has as its system HCT-116.
The test system of assay [18] is KM12.
Assay [19] deals with COLO 205.
In assay [20] the test system is IGROV-1.

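Cultured in 96-well plates, cells were exposed to test compound for 48 hours across five concentrations. GI50: concentration for 50% inhibition of growth.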 Calls of active or inactive are those of the source. Cut-off read from the data, not from the text of the source: active = GI50 up to about 1.1 µM and inactive = higher.

As for `CCCc1cn2c(/C=N/NC(=N)N)c(-c3ccc([N+](=O)[O-])cc3)nc2s1`, the GI50 in [1] was 1.71 µM (inactive); in assay [2] it was 1.06 µM (active); in assay [3], 1.67 µM (inactive); in assay [4] it was 1.77 µM (inactive); in [5] it was 1.36 µM; in [6], 2 µM (inactive). The GI50 in [7] was 1.75 µM (inactive); in assay [8] it was 2.16 µM (inactive); in [9] it was 1.73 µM (inactive); in assay [10] it was 1.69 µM (inactive); in assay [11] it was 0.286 µM (active); in [12], 0.231 µM (active). Also, the GI50 in assay [13] is 0.342 µM (active); in assay [14], 0.245 µM (active); in assay [15] it was 1.69 µM (inactive); in assay [16] it was 0.275 µM (active); in assay [17], 0.377 µM (active); in [18] it was 1.52 µM (inactive). In addition, the GI50 is 0.891 µM (active) in assay [19] and 1.77 µM (inactive) in assay [20].
As for `Cc1ccc(Nc2nc(O)c3[nH]cnc3n2)cc1CO`, the GI50 in [1] is 3 µM (inactive); in assay [2] it was 17.1 µM (inactive); in [3], 14 µM (inactive); in [4] it was 19.5 µM (inactive); in assay [5] it was 15.6 µM; in assay [6] it was 17.1 µM (inactive). Also, the GI50 is 16.6 µM (inactive) in [7]; 20.7 µM (inactive) in assay [8]; 17.3 µM (inactive) in assay [9]; 15.2 µM (inactive) in assay [10]; 15.9 µM (inactive) in assay [11]; 15.5 µM (inactive) in [12]. In addition, the GI50 in assay [13] was 17.5 µM (inactive); in [14], 14 µM (inactive); in assay [15] it was 12.1 µM (inactive); in assay [16], 8.87 µM (inactive); in assay [17], 12.1 µM (inactive); in [18] it was 8.81 µM (inactive). In addition, the GI50 is 14.6 µM (inactive) in [19] and 14.9 µM (inactive) in [20].
Take `CCCCCCCCCCC(O)[C@H]1CCC(C2CC[C@H]([C@H](O)CCCCCCCCCCC(O)CC3=CC(C)OC3=O)O2)O1` (stereo not given in full): the GI50 is 1.44 µM (inactive) in assay [1]; 2.75 µM (inactive) in [2]; 2.23 µM (inactive) in [3]; 4.57 µM (inactive) in assay [4]; 2.01 µM in assay [5]; 1.11 µM (active) in assay [6]. For the same molecule, the GI50 in [7] is 1.21 µM (inactive); in [8], 1.58 µM (inactive); in [9], 1.27 µM (inactive); in [10], 2.18 µM (inactive); in [11], 1.8 µM (inactive); in assay [12], 2.47 µM (inactive). Besides, the GI50 in [13] was 1.87 µM (inactive); in assay [14], 1.9 µM (inactive); in [15], 1.61 µM (inactive); in assay [16], 1.55 µM (inactive); in assay [17] it was 1.94 µM (inactive); in assay [18], 1.47 µM (inactive). Moreover, the values for the GI50 in [19] and in assay [20] were 1.48 µM (inactive) and 1.66 µM (inactive), respectively.
As to `Cc1ccc2c(c1)C(=O)c1[nH]c3ccc(F)cc3c1CO2`, the GI50 in assay [1] was 62.2 µM (inactive); in [2], 15.3 µM (inactive); in assay [3], 21.3 µM (inactive); in assay [4], > 100 µM (inactive); in assay [5], greater than 100 µM; in [6], 31.8 µM (inactive). The GI50 in assay [7] was > 100 µM (inactive); in [8], 48 µM (inactive); in assay [9], > 100 µM (inactive); in assay [10], 27.5 µM (inactive); in assay [11], 29 µM (inactive); in [12], 58.2 µM (inactive). Also, the GI50 was 24.4 µM (inactive) in assay [13]; 49.8 µM (inactive) in assay [14]; > 100 µM (inactive) in assay [15]; 23.4 µM (inactive) in [16]; 17.8 µM (inactive) in assay [17]; > 100 µM (inactive) in [18]. Besides, the GI50 was > 100 µM (inactive) in assay [19] and 30.3 µM (inactive) in assay [20].
`CC(C)=CCN1CC(C)C(=O)Nc2cc(Cl)ccc21` (stereo not given): the GI50 in assay [1] is 30.2 µM (inactive); in [2], 25.6 µM (inactive); in [3], 24.9 µM (inactive); in assay [4] it was 30 µM (inactive); in assay [5] it was 29.9 µM; in assay [6], 15.7 µM (inactive). Besides, the GI50 in assay [7] was 18.7 µM (inactive); in assay [8], 35.2 µM (inactive); in assay [9], 13.3 µM (inactive); in assay [10], 18.5 µM (inactive); in assay [11], 96.8 µM (inactive); in [12], > 100 µM (inactive). The GI50 in assay [13] was 26.7 µM (inactive); in [14] it was > 100 µM (inactive); in assay [15] it was 22 µM (inactive); in [16], 19.2 µM (inactive); in [17], 16.2 µM (inactive); in [18] it was 25.2 µM (inactive). Besides, the results for the GI50 in assay [19] and in [20] were 19.8 µM (inactive) and 24.3 µM (inactive), respectively.
As for `C/C=C/C(CC(O)(C(F)(F)F)C(F)(F)F)=N/NC(N)=S`, the GI50 in assay [1] was > 10 µM (inactive); in [2], > 10 µM (inactive); in assay [3], > 10 µM (inactive); in assay [4] it was > 10 µM (inactive); in assay [5] it was greater than 10 µM; in assay [6] it was > 10 µM (inactive). In addition, the GI50 in [7], in [8], in [9], in assay [10], in assay [11] and in assay [12] was > 10 µM (inactive) each time. Moreover, the GI50 in [13], in assay [14], in assay [15], in assay [16], in [17] and in assay [18] was > 10 µM (inactive) in each case. For the same molecule, the GI50 in assay [19] and in assay [20] was > 10 µM (inactive) throughout.
With `CCOc1cc2c(cc1O)CC[C@@H]1[C@@H]2CC[C@]2(C)C(OS(=O)OC3CC[C@@H]4[C@H]5CCc6cc(O)c(OCC)cc6[C@@H]5CC[C@@]34C)CC[C@@H]12` (stereo not given in full), the GI50 in [1] is 0.689 µM (active); in assay [2] it was 9.2 µM (inactive); in assay [3], 5.66 µM (inactive); in assay [4], 1.62 µM (inactive); in [5] it was 0.507 µM; in assay [6] it was 2.49 µM (inactive). The GI50 in [7] was 0.452 µM (active); in assay [8], 2.44 µM (inactive); in assay [9], 2.24 µM (inactive); in assay [10], 2.45 µM (inactive); in assay [11], 0.316 µM (active); in [12] it was 1.14 µM (inactive). For the same molecule, the GI50 in assay [13] is 0.355 µM (active); in assay [14], 0.182 µM (active); in assay [15], 4.06 µM (inactive); in assay [16], 22.6 µM (inactive); in assay [17], 0.577 µM (active); in [18], 4.59 µM (inactive). For the same molecule, the GI50 in [19] was 23.1 µM (inactive); in [20] it was 4.52 µM (inactive).
